Measured values as given in the OligoGym collection.
“And” between values parts separate entries of the source, which are not always exact repeats. Equal entries are not always repeated. HELM strings list units from the 5' end as sugar, base in round brackets, then linkage (d deoxyribose, r ribose, m 2'-O-methyl, p phosphodiester). Methylation of C is not given here. [moe] = 2'-O-(2-methoxyethyl) (MOE); [cEt] = constrained ethyl (cEt); [sp] = phosphorothioate linkage

Target: HBV
Conditions: ASO

Substance	target mRNA inhibition (HepG2, 0.07 µM)	further results
RNA1{[moe](A)[sp].[moe](C)[sp].[moe](T)[sp].d(A)[sp].d(G)[sp].d(T)[sp].d(A)[sp].d(A)[sp].d(A)[sp].d(C)[sp].d(T)[sp].d(G)[sp].[moe](A)[sp].[moe](G)[sp].[moe](C)[sp].[moe](C)[sp].[moe](A)}$$$$V2.0	66% and 67%	–
RNA1{[moe](A)[sp].[moe](C)[sp].[moe](T)[sp].d(G)[sp].d(G)[sp].d(A)[sp].d(G)[sp].d(C)[sp].d(C)[sp].d(A)[sp].d(C)[sp].d(C)[sp].[moe](A)[sp].[moe](G)[sp].[moe](C)[sp].[moe](A)}$$$$V2.0	53% and 72%	target mRNA inhibition (HepG2, 0.0092593 µM): 4%; target mRNA inhibition (HepG2, 0.0277778 µM): 23%; target mRNA inhibition (HepG2, 0.0833333 µM): 46%; target mRNA inhibition (HepG2, 0.25 µM): 56%
RNA1{[moe](A)[sp].[moe](C)[sp].d(C)[sp].d(A)[sp].d(C)[sp].d(T)[sp].d(G)[sp].d(A)[sp].d(A)[sp].d(C)[sp].d(A)[sp].[moe](A)[sp].[moe](A)[sp].[moe](T)[sp].[moe](G)[sp].[moe](G)}$$$$V2.0	43% and 44%	–
RNA1{[moe](A)[sp].[moe](C)[sp].d(G)[sp].d(T)[sp].d(G)[sp].d(C)[sp].d(A)[sp].d(G)[sp].d(A)[sp].d(G)[sp].d(G)[sp].[moe](T)[sp].[moe](G)[sp].[moe](A)[sp].[moe](A)[sp].[moe](G)}$$$$V2.0	57% and 44%	–
RNA1{[moe](A)[sp].[moe](G)[sp].[moe](A)[sp].[moe](G)[sp].[moe](G)[sp].d(T)[sp].d(G)[sp].d(A)[sp].d(A)[sp].d(G)[sp].d(C)[sp].d(G)[sp].d(A)[sp].d(A)[sp].[moe](G)[sp].[moe](T)[sp].[moe](G)}$$$$V2.0	64% and 55%	–
RNA1{[moe](A)[sp].[moe](G)[sp].[moe](A)[sp].[moe](G)[sp].d(G)[sp].d(T)[sp].d(G)[sp].d(A)[sp].d(A)[sp].d(G)[sp].d(C)[sp].d(G)[sp].d(A)[sp].[moe](A)[sp].[moe](G)[sp].[moe](T)[sp].[moe](G)}$$$$V2.0	50% and 47%	–
RNA1{[moe](A)[sp].[moe](G)[sp].[moe](A)[sp].d(G)[sp].d(A)[sp].d(A)[sp].d(G)[sp].d(T)[sp].d(C)[sp].d(C)[sp].d(A)[sp].d(C)[sp].[moe](C)[sp].[moe](A)[sp].[moe](C)[sp].[moe](G)[sp].[moe](A)}$$$$V2.0	59% and 56%	–
RNA1{[moe](A)[sp].[moe](G)[sp].[moe](A)[sp].d(T)[sp].d(G)[sp].d(A)[sp].d(G)[sp].d(G)[sp].d(C)[sp].d(A)[sp].d(T)[sp].d(A)[sp].[moe](G)[sp].[moe](C)[sp].[moe](A)[sp].[moe](G)[sp].[moe](C)}$$$$V2.0	69% and 63%	–
RNA1{[moe](A)[sp].[moe](G)[sp].[moe](C)[sp].[moe](G)[sp].d(A)[sp].d(A)[sp].d(G)[sp].d(T)[sp].d(G)[sp].d(C)[sp].d(A)[sp].d(C)[sp].d(A)[sp].[moe](C)[sp].[moe](G)[sp].[moe](G)}$$$$V2.0	78% and 73%	target mRNA inhibition (HepG2, 0.0092593 µM): 25%; target mRNA inhibition (HepG2, 0.0277778 µM): 37%; target mRNA inhibition (HepG2, 0.0833333 µM): 73%; target mRNA inhibition (HepG2, 0.25 µM): 87%
RNA1{[moe](A)[sp].[moe](G)[sp].[moe](G)[sp].[moe](A)[sp].d(G)[sp].d(T)[sp].d(T)[sp].d(C)[sp].d(C)[sp].d(G)[sp].d(C)[sp].d(A)[sp].d(G)[sp].[moe](T)[sp].[moe](A)[sp].[moe](T)[sp].[moe](G)}$$$$V2.0	74% and 50%	–
RNA1{[moe](A)[sp].[moe](G)[sp].[moe](G)[sp].[moe](C)[sp].d(A)[sp].d(T)[sp].d(A)[sp].d(G)[sp].d(C)[sp].d(A)[sp].d(G)[sp].d(C)[sp].d(A)[sp].[moe](G)[sp].[moe](G)[sp].[moe](A)[sp].[moe](T)}$$$$V2.0	29% and 31%	–
RNA1{[moe](A)[sp].[moe](G)[sp].[moe](G)[sp].[moe](T)[sp].[moe](G)[sp].d(A)[sp].d(A)[sp].d(G)[sp].d(C)[sp].d(G)[sp].d(A)[sp].d(A)[sp].d(G)[sp].d(T)[sp].[moe](G)[sp].[moe](C)[sp].[moe](A)}$$$$V2.0	73% and 56%	–
RNA1{[moe](A)[sp].[moe](G)[sp].[moe](G)[sp].[moe](T)[sp].[moe](G)[sp].d(A)[sp].d(A)[sp].d(G)[sp].d(C)[sp].d(G)[sp].d(A)[sp].d(A)[sp].d(G)[sp].d(T)[sp].[moe](G)[sp].[moe](C)}$$$$V2.0	50% and 44%	–
RNA1{[moe](A)[sp].[moe](G)[sp].[moe](G)[sp].d(C)[sp].d(A)[sp].d(T)[sp].d(A)[sp].d(G)[sp].d(C)[sp].d(A)[sp].d(G)[sp].d(C)[sp].[moe](A)[sp].[moe](G)[sp].[moe](G)[sp].[moe](A)}$$$$V2.0	54% and 53%	–
RNA1{[moe](A)[sp].[moe](G)[sp].[moe](G)[sp].d(T)[sp].d(G)[sp].d(A)[sp].d(A)[sp].d(G)[sp].d(C)[sp].d(G)[sp].d(A)[sp].d(A)[sp].d(G)[sp].[cEt](T)[sp].[cEt](G)[sp].[cEt](C)}$$$$V2.0	73% and 68%	–
RNA1{[moe](A)[sp].[moe](G)[sp].[moe](T)[sp].[moe](T)[sp].d(C)[sp].d(C)[sp].d(G)[sp].d(C)[sp].d(A)[sp].d(G)[sp].d(T)[sp].d(A)[sp].d(T)[sp].[moe](G)[sp].[moe](G)[sp].[moe](A)[sp].[moe](T)}$$$$V2.0	43% and 52%	–

Substance	target mRNA inhibition (HepG2, 0.07 µM)	further results
RNA1{[moe](A)[sp].[moe](G)[sp].[moe](T)[sp].[moe](T)[sp].d(C)[sp].d(C)[sp].d(G)[sp].d(C)[sp].d(A)[sp].d(G)[sp].d(T)[sp].d(A)[sp].d(T)[sp].[moe](G)[sp].[moe](G)[sp].[moe](A)}$$$$V2.0	60% and 39%	–
RNA1{[moe](A)[sp].[moe](G)[sp].[moe](T)[sp].d(T)[sp].d(C)[sp].d(C)[sp].d(G)[sp].d(C)[sp].d(A)[sp].d(G)[sp].d(T)[sp].d(A)[sp].d(T)[sp].[cEt](G)[sp].[cEt](G)[sp].[cEt](A)}$$$$V2.0	58% and 69%	–
RNA1{[moe](A)[sp].[moe](G)[sp].d(A)[sp].d(A)[sp].d(G)[sp].d(T)[sp].d(C)[sp].d(C)[sp].d(A)[sp].d(C)[sp].d(C)[sp].[moe](A)[sp].[moe](C)[sp].[moe](G)[sp].[moe](A)[sp].[moe](G)[sp].[moe](T)}$$$$V2.0	62% and 49%	–
RNA1{[moe](A)[sp].[moe](T)[sp].[moe](G)[sp].[moe](A)[sp].[moe](G)[sp].[moe](G)[sp].d(C)[sp].d(A)[sp].d(T)[sp].d(A)[sp].d(G)[sp].d(C)[sp].d(A)[sp].d(G)[sp].d(C)[sp].[moe](A)[sp].[moe](G)}$$$$V2.0	55% and 51%	–
RNA1{[moe](A)[sp].[moe](T)[sp].[moe](G)[sp].d(A)[sp].d(G)[sp].d(G)[sp].d(C)[sp].d(A)[sp].d(T)[sp].d(A)[sp].d(G)[sp].d(C)[sp].[moe](A)[sp].[moe](G)[sp].[moe](C)[sp].[moe](A)[sp].[moe](G)}$$$$V2.0	66% and 51%	–
RNA1{[moe](A)[sp].[moe](T)[sp].[moe](T)[sp].[moe](T)[sp].[moe](A)[sp].d(T)[sp].d(G)[sp].d(C)[sp].d(C)[sp].d(T)[sp].d(A)[sp].d(C)[sp].d(A)[sp].d(G)[sp].[moe](C)[sp].[moe](C)[sp].[moe](T)}$$$$V2.0	70% and 48%	–
RNA1{[moe](A)[sp].[moe](T)[sp].[moe](T)[sp].d(T)[sp].d(A)[sp].d(T)[sp].d(G)[sp].d(C)[sp].d(C)[sp].d(T)[sp].d(A)[sp].d(C)[sp].[moe](A)[sp].[moe](G)[sp].[moe](C)[sp].[moe](C)[sp].[moe](T)}$$$$V2.0	58% and 50%	–
RNA1{[moe](C)[sp].[cEt](A)[sp].[cEt](A)[sp].d(A)[sp].d(T)[sp].d(G)[sp].d(G)[sp].d(C)[sp].d(A)[sp].d(C)[sp].d(T)[sp].d(A)[sp].d(G)[sp].[cEt](T)[sp].[cEt](A)[sp].[moe](A)}$$$$V2.0	55% and 64%	–
RNA1{[moe](C)[sp].[cEt](A)[sp].d(C)[sp].d(T)[sp].d(G)[sp].d(A)[sp].d(A)[sp].d(C)[sp].d(A)[sp].d(A)[sp].d(A)[sp].d(T)[sp].[cEt](G)[sp].[moe](G)[sp].[cEt](C)[sp].[moe](A)}$$$$V2.0	–	target mRNA inhibition (HepG2, 0.0092593 µM): 5%; target mRNA inhibition (HepG2, 0.0277778 µM): 26%; target mRNA inhibition (HepG2, 0.0833333 µM): 64%; target mRNA inhibition (HepG2, 0.25 µM): 82%
RNA1{[moe](C)[sp].[cEt](C)[sp].[cEt](A)[sp].d(A)[sp].d(G)[sp].d(G)[sp].d(C)[sp].d(A)[sp].d(C)[sp].d(A)[sp].d(G)[sp].d(C)[sp].d(T)[sp].[cEt](T)[sp].[cEt](G)[sp].[moe](G)}$$$$V2.0	1% and 0%	–
RNA1{[moe](C)[sp].[cEt](C)[sp].[cEt](A)[sp].d(A)[sp].d(T)[sp].d(T)[sp].d(T)[sp].d(A)[sp].d(T)[sp].d(G)[sp].d(C)[sp].d(C)[sp].d(T)[sp].[cEt](A)[sp].[cEt](C)[sp].[moe](A)}$$$$V2.0	42% and 18%	–
RNA1{[moe](C)[sp].[cEt](C)[sp].[cEt](A)[sp].d(C)[sp].d(G)[sp].d(A)[sp].d(G)[sp].d(T)[sp].d(C)[sp].d(T)[sp].d(A)[sp].d(G)[sp].d(A)[sp].[cEt](C)[sp].[cEt](T)[sp].[moe](C)}$$$$V2.0	0%	–
RNA1{[moe](C)[sp].[cEt](C)[sp].[cEt](A)[sp].d(C)[sp].d(T)[sp].d(G)[sp].d(A)[sp].d(A)[sp].d(C)[sp].d(A)[sp].d(A)[sp].d(A)[sp].d(T)[sp].[cEt](G)[sp].[cEt](G)[sp].[moe](C)}$$$$V2.0	78% and 84%	target mRNA inhibition (HepG2, 0.0092593 µM): 11%; target mRNA inhibition (HepG2, 0.0277778 µM): 28%; target mRNA inhibition (HepG2, 0.0833333 µM): 68%; target mRNA inhibition (HepG2, 0.25 µM): 89%
RNA1{[moe](C)[sp].[cEt](G)[sp].[cEt](A)[sp].d(A)[sp].d(C)[sp].d(C)[sp].d(A)[sp].d(C)[sp].d(T)[sp].d(G)[sp].d(A)[sp].d(A)[sp].d(C)[sp].[cEt](A)[sp].[cEt](A)[sp].[moe](A)}$$$$V2.0	64% and 48%	–
RNA1{[moe](C)[sp].[cEt](G)[sp].[cEt](C)[sp].d(A)[sp].d(G)[sp].d(T)[sp].d(A)[sp].d(T)[sp].d(G)[sp].d(G)[sp].d(A)[sp].d(T)[sp].d(C)[sp].[cEt](G)[sp].[cEt](G)[sp].[moe](C)}$$$$V2.0	81% and 78%	–
